According to the NIST ThermoML archive (doi:10.1021/je100145f):

Test: molar heat capacity at constant pressure; xn = mol fraction of the nth substance listed
Settings: 101 kPa, Liquid, Small sample (50 mg) DSC

N#Cc1ccccc1 [benzonitrile] + CCCCCCCC
molar heat capacity at constant pressure [J/K/mol]
Settings | 283.15 K | 288.15 K | 293.15 K | 298.15 K | 303.15 K | 308.15 K | 313.15 K | 318.15 K
x1 = 0.0219 | 246.32 | 248.19 | 250.11 | 252.1 | 254.14 | 256.24 | 258.38 | 260.56
x1 = 0.0576 | 243.69 | 245.52 | 247.38 | 249.32 | 251.3 | 253.34 | 255.43 | 257.56
x1 = 0.1021 | 240.66 | 242.38 | 244.17 | 246 | 247.92 | 249.87 | 251.88 | 253.94
x1 = 0.1999 | 234.51 | 235.9 | 237.41 | 239.04 | 240.74 | 242.5 | 244.34 | 246.23
x1 = 0.2998 | 229.04 | 229.53 | 230.52 | 231.82 | 233.28 | 234.82 | 236.47 | 238.12
x1 = 0.4002 | 224.38 | 222.59 | 223.06 | 224.03 | 225.26 | 226.66 | 228.12 | 229.73
x1 = 0.4637 | 219.83 | 217.33 | 217.69 | 218.58 | 219.78 | 221.13 | 222.51 | –
x1 = 0.5001 | 215.93 | 213.9 | 214.32 | 215.28 | 216.5 | 217.77 | 219.26 | 220.74
x1 = 0.6001 | 203.15 | 203.61 | 204.57 | 205.76 | 207.09 | 208.41 | 209.85 | 211.38
x1 = 0.7003 | 192.17 | 193.38 | 194.65 | 195.97 | 197.33 | 198.73 | 200.16 | 201.61
x1 = 0.7999 | 182.68 | 183.92 | 185.2 | 186.53 | 187.88 | 189.25 | 190.63 | 192.02
x1 = 0.9 | 173.26 | 174.47 | 175.71 | 176.98 | 178.27 | 179.58 | 180.92 | 182.23
x1 = 0.95 | 168.41 | 169.62 | 170.83 | 172.09 | 173.36 | 174.65 | 175.96 | 177.25
x1 = 0.9801 | 165.44 | 166.62 | 167.83 | 169.07 | 170.34 | 171.61 | 172.89 | 174.17
x1 = 1 | 163.43 | 164.61 | 165.82 | 167.06 | 168.32 | 169.59 | 170.87 | 172.15

N#Cc1ccccc1 [benzonitrile] + CCCCCCCCC
molar heat capacity at constant pressure [J/K/mol]
Settings | 285.15 K | 288.15 K | 293.15 K | 298.15 K | 303.15 K | 308.15 K | 313.15 K
x1 = 0.0239 | 275.6 | 276.8 | 278.87 | 280.98 | 283.18 | 285.48 | 287.76
x1 = 0.0499 | 272.83 | 274.01 | 276.02 | 278.11 | 280.26 | 282.5 | 284.75
x1 = 0.0989 | 267.94 | 269.06 | 270.98 | 272.97 | 275.01 | 277.16 | 279.34
x1 = 0.1984 | 258.53 | 259.47 | 261.13 | 262.87 | 264.72 | 266.66 | 268.65
x1 = 0.2543 | 253.53 | 254.27 | 255.7 | 257.26 | 258.97 | 260.77 | 262.65
x1 = 0.3 | 249.7 | 250.12 | 251.28 | 252.66 | 254.22 | 255.89 | 257.63
x1 = 0.4004 | 242.4 | 241.04 | 241.24 | 242.16 | 243.44 | 244.94 | 246.59
x1 = 0.4968 | 234.22 | 230.79 | 230.43 | 231.16 | 232.33 | 233.66 | 235.16
x1 = 0.6 | 217.32 | 216.76 | 217.29 | 218.27 | 219.53 | 220.89 | 222.37
x1 = 0.6996 | 202.24 | 202.88 | 204.1 | 205.37 | 206.74 | 208.21 | 209.67
x1 = 0.8 | 189.2 | 189.97 | 191.28 | 192.63 | 194 | 195.39 | 196.84
x1 = 0.9 | 176.74 | 177.48 | 178.75 | 180.02 | 181.35 | 182.67 | 184.01
x1 = 0.9498 | 170.45 | 171.18 | 172.4 | 173.65 | 174.93 | 176.22 | 177.48
x1 = 0.9805 | 166.46 | 167.19 | 168.41 | 169.64 | 170.89 | 172.18 | 173.44
x1 = 1 | 163.9 | 164.63 | 165.82 | 167.06 | 168.32 | 169.59 | 170.87
